Results from patent US20250353873A1, “COMPOUNDS AND METHODS FOR MODULATING APOE EXPRESSION” (Ionis Pharmaceuticals, Inc., priority 2024, published 2025).
“And” between values parts separate entries of the source, which are not always exact repeats. Equal entries are not always repeated. Strand notation (5' to 3'): a small letter for the sugar, then the base; units joined by * are phosphorothioate-linked, units joined directly phosphodiester-linked; [ ] holds rarer units or linkages, { } end groups; capitals alone tell only the bases. [ms] = mesyl phosphoramidate linkage; e = 2'-O-(2-methoxyethyl) (MOE); k = constrained ethyl (cEt); [5mC] = 5-methylcytosine; d = 2'-deoxy (DNA)

How the values were obtained:
[1] = system: human APOE RNA; assay: Activity in APOE C57BL/6NTac-Apoeem7250 knock-in mice, single ICV bolus, 4 weeks (Example 10); format: in vivo; settings: single ICV bolus 300 μg, 4 weeks post treatment, normalized to mouse Ppia
Method in brief: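 Human APOE RNA, quantified by real-time RT-PCR with RTS3073 and normalized to mouse Ppia, was read in cortical brain and spinal cord 4 weeks post dosing. Dosing was a single ICV bolus of 300 μg per knock-in mouse; values are % of PBS-treated animals.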

[2] = system: human APOE RNA; assay: Activity in APOE C57BL/6NTac-Apoeem7250 knock-in mice, single ICV bolus, 20 weeks (Example 13); format: in vivo; settings: single ICV bolus 300 μg, 20 weeks post treatment, normalized to mouse Ppia
Method: Modified oligonucleotides described above were tested in the APOE C57BL/6NTac-Apoeem7250 knock-in mouse model described above.
APOE C57BL/6NTac-Apoeem7250 knock-in mice were divided into groups of 4 mice each. Each mouse received a single ICV bolus of 300 μg of modified oligonucleotide. A group of 2-4 mice received a single ICV bolus with PBS as a negative control.
Twenty weeks post treatment, mice were sacrificed and RNA was extracted from cortical brain tissue and spinal cord for quantitative real-time RT-PCR analysis of RNA expression of APOE using human primer probe set RTS3073 (described herein above). APOE RNA levels were normalized to mouse Ppia. Mouse Ppia was amplified using primer probe set m_cyclo24 (described herein above). Results are presented as percent human APOE RNA relative to the amount of human APOE RNA in PBS treated animals, (% control). Each experiment is identified in separate tables below.

[3] = system: human APOE RNA; assay: Activity in APOE C57BL/6NTac-Apoeem7250 knock-in mice, single ICV bolus, 8 weeks (Example 11); format: in vivo; settings: single ICV bolus 300 μg, 8 weeks post treatment, normalized to mouse Ppia
Method in brief: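 Cortical and spinal cord human APOE RNA quantified by RT-qPCR 8 weeks after a single 300 μg ICV dose in knock-in mice, Ppia-normalized. Values are percent of levels in PBS-treated animals.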

[4] = system: human APOE RNA; assay: Activity in APOE C57BL/6NTac-Apoeem7250 knock-in mice, single ICV bolus, 16 weeks (Example 12); format: in vivo; settings: cortex; single ICV bolus 300 μg; 16 weeks post treatment; normalized to mouse Ppia
Method in brief: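 A single 300 μg intracerebroventricular dose was given, with PBS-treated mice as reference; cortical and spinal cord tissue was taken 16 weeks later. RT-qPCR quantified human APOE RNA, Ppia-normalized, expressed relative to PBS animals (% control).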

[5] = system: human APOE RNA; assay: Dose-dependent inhibition of human APOE RNA in HepG2 cells, electroporation, 50,000 cells per well, RT-PCR normalized to GAPDH (Example 4, Tables 8-10); format: cell-based; settings: HepG2, electroporation, 16-hour treatment
Method in brief: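 Readout is percent APOE RNA versus untreated controls, measured by RT-PCR (primer probe set RTS3073) and normalized to human GAPDH. Modified oligonucleotides were delivered by electroporation at varying doses into HepG2 cells plated at 50,000 per well.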

Substance	APOE RNA (% control) Cortex ([1]; cortex) [% control]	APOE RNA (% control) Spinal Cord ([1]; spinal cord) [% control]	APOE RNA (% control) Cortex [2] [% control]	APOE RNA (% control) Spinal Cord [2] [% control]	APOE RNA (% control) Cortex ([3]; cortex) [% control]	APOE RNA (% control) Spinal Cord ([3]; spinal cord) [% control]	APOE RNA (% control) Cortex [4]	APOE RNA (% UTC) ([5]; 5 nM)	APOE RNA (% UTC) ([5]; 13 nM)	APOE RNA (% UTC) ([5]; 33 nM)	APOE RNA (% UTC) ([5]; 82 nM)	APOE RNA (% UTC) ([5]; 205 nM)	APOE RNA (% UTC) ([5]; 512 nM)	APOE RNA (% UTC) ([5]; 1,280 nM)	APOE RNA (% UTC) ([5]; 3,200 nM)	APOE RNA (% UTC) ([5]; 8,000 nM)	APOE RNA (% UTC) ([5]; 20,000 nM)	IC50 [5] [nM]
1785589 (k[5mC]*kT*kT*dG[ms]dG[ms]dT[ms]dG*dA*dA*dT[ms]d[5mC][ms]dT*dT*dT*dA*dT*kT*kA*dA[ms]kA; antisense) [Compound 1785589]	32	40	49	30	–	–	–	–	–	–	–	–	–	–	–	–	–	–
1693144: 6-10-4 MOE gapmer ACTTGGTGAATCTTTATTAA, linkages soosssszzzssssszsss (eA*e[5mC]eTeT*eG*eG*dT*dG[ms]dA[ms]dA[ms]dT*d[5mC]*dT*dT*dT*dA[ms]eT*eT*eA*eA) [compound 1693144]	–	–	65	71	67	43	113 % control and 61 % control	–	–	–	–	–	–	–	–	–	–	–
1757582 (eT*eTeGkGkT*dG*dA*dA*dT*d[5mC]*dT*dT*dT*dA*dT*eTeAeA*eA*e[5mC]; antisense) [Compound 1757582]	–	–	62	44	–	–	–	87	107	72	92	70	64	29	12	37	9	710
1757570 (eA*e[5mC]eTeTkG*dG*dT*dG*dA*dA*dT*d[5mC]*dT*dT*dT*kAkTeT*eA*eA; antisense) [Compound 1757570]	–	–	64	48	–	–	–	154	–	–	151	62	26	42	22	18	18	580
1757581 (eT*eTeGeGkT*dG*dA*dA*dT*d[5mC]*dT*dT*dT*dA*dT*eTeAeA*eA*e[5mC]; antisense) [Compound 1757581]	–	–	87	75	–	–	–	83	85	100	78	76	58	33	25	15	8	680
1757544: mixed MOE/cEt gapmer TTGGTGAATCTTTATTAA, sugar ekeeeddddddddeeeee, linkages soossssssssssooss (eT*kTeGeG*eT*dG*dA*dA*dT*d[5mC]*dT*dT*dT*eAeTeT*eA*eA) [compound 1757544]	–	–	101	96	–	–	–	104	86	100	111	90	75	59	42	26	12	2180
1757585 (eT*eTeGkGkT*dG*dA*dA*dT*d[5mC]*dT*dT*dT*dA*dT*kTeAeA*eA*e[5mC]; antisense) [Compound 1757585]	–	–	62	61	–	–	–	45	49	44	38	33	53	19	32	12	1	10
1757564: mixed MOE/cEt gapmer TTGGTGAATCTTTATTAA, sugar eeeekddddddddkeeke, linkages soossssssssssooss (eT*eTeGeG*kT*dG*dA*dA*dT*d[5mC]*dT*dT*dT*kAeTeT*kA*eA) [compound 1757564]	–	–	95	69	–	–	–	91	86	92	93	82	72	62	39	22	33	2210
1757563: mixed MOE/cEt gapmer TTGGTGAATCTTTATTAA, sugar eeeekddddddddkekee, linkages soossssssssssooss (eT*eTeGeG*kT*dG*dA*dA*dT*d[5mC]*dT*dT*dT*kAeTkT*eA*eA) [compound 1757563]	–	–	93	71	–	–	–	95	103	84	94	76	67	54	41	17	8	1380
1757559: mixed MOE/cEt gapmer TTGGTGAATCTTTATTAA, sugar eeeekddddddddkeeee, linkages soossssssssssooss (eT*eTeGeG*kT*dG*dA*dA*dT*d[5mC]*dT*dT*dT*kAeTeT*eA*eA) [compound 1757559]	–	–	94	69	–	–	–	90	80	89	87	81	89	60	42	39	25	3110
